Data from ChEMBL document CHEMBL4414672, “Synthesis of certain benzothieno[3,2-d]pyrimidine derivatives as a selective SIRT2 inhibitors” (Eur J Med Chem, 2020).

Key:
Format in all cases: functional
DU-145 = experiment: Growth inhibition of human DU145 cells at 10^-5 M incubated for 48 hrs by sulforhodamine B assay; settings: DU-145, 48 h, read-out: GI
KM12 = experiment: Growth inhibition of human KM12 cells at 10^-5 M incubated for 48 hrs by sulforhodamine B assay; settings: KM12, 48 h, read-out: GI
UACC-62 = experiment: Growth inhibition of human UACC62 cells at 10^-5 M incubated for 48 hrs by sulforhodamine B assay; settings: UACC-62, 48 h, read-out: GI
RXF 393 = experiment: Growth inhibition of human RXF393 cells at 10^-5 M incubated for 48 hrs by sulforhodamine B assay; settings: RXF 393, 48 h, read-out: GI
SF-539 = experiment: Growth inhibition of human SF539 cells at 10^-5 M incubated for 48 hrs by sulforhodamine B assay; settings: SF-539, 48 h, read-out: GI
SK-MEL-5 = experiment: Growth inhibition of human SK-MEL-5 cells at 10^-5 M incubated for 48 hrs by sulforhodamine B assay; settings: SK-MEL-5, 48 h, read-out: GI
Hs-578T = experiment: Growth inhibition of human Hs 578T cells at 10^-5 M incubated for 48 hrs by sulforhodamine B assay; settings: read-out: GI
TK-10 = experiment: Growth inhibition of human TK10 cells at 10^-5 M incubated for 48 hrs by sulforhodamine B assay; settings: TK-10, 48 h, read-out: GI
LOX IMVI = experiment: Growth inhibition of human LOXIMVI cells at 10^-5 M incubated for 48 hrs by sulforhodamine B assay; settings: read-out: GI
NCI-H226 = experiment: Growth inhibition of human NCI-H226 cells at 10^-5 M incubated for 48 hrs by sulforhodamine B assay; settings: NCI-H226, 48 h, read-out: GI
MOLT-4 = experiment: Growth inhibition of human MOLT4 cells at 10^-5 M incubated for 48 hrs by sulforhodamine B assay; settings: MOLT-4, 48 h, read-out: GI
786-0 = experiment: Growth inhibition of human 786-0 cells at 10^-5 M incubated for 48 hrs by sulforhodamine B assay; settings: 786-0, 48 h, read-out: GI
T47D = experiment: Growth inhibition of human T47D cells at 10^-5 M incubated for 48 hrs by sulforhodamine B assay; settings: read-out: GI
SF-295 = experiment: Growth inhibition of human SF295 cells at 10^-5 M incubated for 48 hrs by sulforhodamine B assay; settings: SF-295, 48 h, read-out: GI
A549 = experiment: Growth inhibition of human A549/ATCC cells at 10^-5 M incubated for 48 hrs by sulforhodamine B assay; settings: A549, 48 h, read-out: GI
SW-620 = experiment: Growth inhibition of human SW620 cells at 10^-5 M incubated for 48 hrs by sulforhodamine B assay; settings: SW-620, 48 h, read-out: GI
HL-60(TB) = experiment: Growth inhibition of human HL-60(TB) cells at 10^-5 M incubated for 48 hrs by sulforhodamine B assay; settings: HL-60, 48 h, read-out: GI
HCT-15 = experiment: Growth inhibition of human HCT15 cells at 10^-5 M incubated for 48 hrs by sulforhodamine B assay; settings: HCT-15, 48 h, read-out: GI
SR = experiment: Growth inhibition of human SR cells at 10^-5 M incubated for 48 hrs by sulforhodamine B assay; settings: read-out: GI
IGROV-1 = experiment: Growth inhibition of human IGROV1 cells at 10^-5 M incubated for 48 hrs by sulforhodamine B assay; settings: IGROV-1, 48 h, read-out: GI
UACC-257 = experiment: Growth inhibition of human UACC257 cells at 10^-5 M incubated for 48 hrs by sulforhodamine B assay; settings: UACC-257, 48 h, read-out: GI
M14 = experiment: Growth inhibition of human M14 cells at 10^-5 M incubated for 48 hrs by sulforhodamine B assay; settings: M14, 48 h, read-out: GI
U-251 = experiment: Growth inhibition of human U251 cells at 10^-5 M incubated for 48 hrs by sulforhodamine B assay; settings: U-251, 48 h, read-out: GI
NCI-H460 = experiment: Growth inhibition of human NCI-H460 cells at 10^-5 M incubated for 48 hrs by sulforhodamine B assay; settings: NCI-H460, 48 h, read-out: GI
HCT-116 = experiment: Growth inhibition of human HCT116 cells at 10^-5 M incubated for 48 hrs by sulforhodamine B assay; settings: HCT-116, 48 h, read-out: GI
OVCAR-5 = experiment: Growth inhibition of human OVCAR5 cells at 10^-5 M incubated for 48 hrs by sulforhodamine B assay; settings: OVCAR-5, 48 h, read-out: GI
SK-MEL-28 = experiment: Growth inhibition of human SK-MEL-28 cells at 10^-5 M incubated for 48 hrs by sulforhodamine B assay; settings: SK-MEL-28, 48 h, read-out: GI
OVCAR-8 = experiment: Growth inhibition of human OVCAR8 cells at 10^-5 M incubated for 48 hrs by sulforhodamine B assay; settings: OVCAR-8, 48 h, read-out: GI
HOP-92 = experiment: Growth inhibition of human HOP92 cells at 10^-5 M incubated for 48 hrs by sulforhodamine B assay; settings: HOP-92, 48 h, read-out: GI
HCC 2998 = experiment: Growth inhibition of human HCC2998 cells at 10^-5 M incubated for 48 hrs by sulforhodamine B assay; settings: HCC 2998, 48 h, read-out: GI
EKVX = experiment: Growth inhibition of human EKVX cells at 10^-5 M incubated for 48 hrs by sulforhodamine B assay; settings: read-out: GI
SNB-75 = experiment: Growth inhibition of human SNB75 cells at 10^-5 M incubated for 48 hrs by sulforhodamine B assay; settings: SNB-75, 48 h, read-out: GI
MDA-MB-435 = experiment: Growth inhibition of human MDA-MB-435 cells at 10^-5 M incubated for 48 hrs by sulforhodamine B assay; settings: MDA-MB-435, 48 h, read-out: GI
CAKI-1 = experiment: Growth inhibition of human Caki1 cells at 10^-5 M incubated for 48 hrs by sulforhodamine B assay; settings: CAKI-1, 48 h, read-out: GI
HOP-62 = experiment: Growth inhibition of human HOP62 cells at 10^-5 M incubated for 48 hrs by sulforhodamine B assay; settings: HOP-62, 48 h, read-out: GI
COLO 205 = experiment: Growth inhibition of human COLO205 cells at 10^-5 M incubated for 48 hrs by sulforhodamine B assay; settings: COLO 205, 48 h, read-out: GI
SK-OV-3 = experiment: Growth inhibition of human SKOV3 cells at 10^-5 M incubated for 48 hrs by sulforhodamine B assay; settings: SK-OV-3, 48 h, read-out: GI
MDA-MB-231 = experiment: Growth inhibition of human MDA-MB-231 cells at 10^-5 M incubated for 48 hrs by sulforhodamine B assay; settings: MDA-MB-231, 48 h, read-out: GI

Structure (SMILES)	inhibition of growth at 10 µM (DU-145) [%]	inhibition of growth at 10 µM (KM12) [%]	inhibition of growth at 10 µM (UACC-62) [%]	inhibition of growth at 10 µM (RXF 393) [%]	inhibition of growth at 10 µM (SF-539) [%]	inhibition of growth at 10 µM (SK-MEL-5) [%]	inhibition of growth at 10 µM (Hs-578T) [%]	inhibition of growth at 10 µM (TK-10) [%]	inhibition of growth at 10 µM (LOX IMVI) [%]	inhibition of growth at 10 µM (NCI-H226) [%]	inhibition of growth at 10 µM (MOLT-4) [%]	inhibition of growth at 10 µM (786-0) [%]	inhibition of growth at 10 µM (T47D) [%]	inhibition of growth at 10 µM (SF-295) [%]	inhibition of growth at 10 µM (A549) [%]	inhibition of growth at 10 µM (SW-620) [%]	inhibition of growth at 10 µM (HL-60(TB)) [%]	inhibition of growth at 10 µM (HCT-15) [%]	inhibition of growth at 10 µM (SR) [%]	inhibition of growth at 10 µM (IGROV-1) [%]	other results
O=C1/C(=C\c2cccc(Br)c2)Sc2ccc(Cl)cc21	-12.3	-0.19	2.69	-5.49	-3.89	1.63	-8.14	-29.1	2.63	10.4	-5.33	-3.61	1.47	-0.53	2.51	-1.25	-5.53	-10.9	-4.42	-2.64	inhibition of growth at 10 µM (UACC-257): -6.58%; inhibition of growth at 10 µM (M14): -1.09%; inhibition of growth at 10 µM (U-251): -3.45%; inhibition of growth at 10 µM (NCI-H460): -7.98%; inhibition of growth at 10 µM (HCT-116): 0.42%; inhibition of growth at 10 µM (OVCAR-5): -9.67%; inhibition of growth at 10 µM (SK-MEL-28): -20.5%; inhibition of growth at 10 µM (OVCAR-8): -3.52%; inhibition of growth at 10 µM (HOP-92): -15.1%; inhibition of growth at 10 µM (HCC 2998): -3.41%; inhibition of growth at 10 µM (EKVX): -0.43%; inhibition of growth at 10 µM (SNB-75): 2.14%; inhibition of growth at 10 µM (MDA-MB-435): -14%; inhibition of growth at 10 µM (CAKI-1): 10.1%; inhibition of growth at 10 µM (HOP-62): 3.1%; inhibition of growth at 10 µM (COLO 205): -6.12%; inhibition of growth at 10 µM (SK-OV-3): 5.77%; inhibition of growth at 10 µM (MDA-MB-231): -3.31%
O=C1Nc2c(sc3ccc(Cl)cc23)C(c2cccc([N+](=O)[O-])c2)N1 (configuration not stated)	-4.61	3.73	8.84	-8.11	8.46	2.85	3.78	-4.8	4.86	17.5	11	4.42	16.3	1.41	1.5	-3.52	1.94	-4.66	20.8	15.6	inhibition of growth at 10 µM (UACC-257): 0.85%; inhibition of growth at 10 µM (M14): 2.62%; inhibition of growth at 10 µM (U-251): 6.51%; inhibition of growth at 10 µM (NCI-H460): 3.38%; inhibition of growth at 10 µM (HCT-116): 5.37%; inhibition of growth at 10 µM (OVCAR-5): 0.73%; inhibition of growth at 10 µM (SK-MEL-28): -5.57%; inhibition of growth at 10 µM (OVCAR-8): 4.06%; inhibition of growth at 10 µM (HOP-92): 17.8%; inhibition of growth at 10 µM (HCC 2998): -3.91%; inhibition of growth at 10 µM (EKVX): 25.3%; inhibition of growth at 10 µM (SNB-75): 22.8%; inhibition of growth at 10 µM (MDA-MB-435): -2.51%; inhibition of growth at 10 µM (CAKI-1): 20.3%; inhibition of growth at 10 µM (HOP-62): 8.74%; inhibition of growth at 10 µM (COLO 205): -1.33%; inhibition of growth at 10 µM (SK-OV-3): 3.88%; inhibition of growth at 10 µM (MDA-MB-231): 12.5%
N#Cc1cnn(C2=Nc3c(sc4ccc(Cl)cc34)C(c3cccc([N+](=O)[O-])c3)N2)c1N (configuration not stated)	-10.5	3.84	7.54	4.09	2.87	4.88	3.32	25.1	12.5	19.2	8.24	1	10.1	-2.52	-3.91	-4.05	-5.54	-4.58	-0.62	23.1	inhibition of growth at 10 µM (UACC-257): -3.69%; inhibition of growth at 10 µM (M14): -2.52%; inhibition of growth at 10 µM (U-251): -11.2%; inhibition of growth at 10 µM (NCI-H460): -1.07%; inhibition of growth at 10 µM (HCT-116): 5.22%; inhibition of growth at 10 µM (OVCAR-5): 4.37%; inhibition of growth at 10 µM (SK-MEL-28): -13.6%; inhibition of growth at 10 µM (OVCAR-8): -2.67%; inhibition of growth at 10 µM (HOP-92): 1.55%; inhibition of growth at 10 µM (HCC 2998): -3.42%; inhibition of growth at 10 µM (EKVX): 20.9%; inhibition of growth at 10 µM (SNB-75): 11.5%; inhibition of growth at 10 µM (MDA-MB-435): -7.15%; inhibition of growth at 10 µM (CAKI-1): -3.28%; inhibition of growth at 10 µM (HOP-62): 5.61%; inhibition of growth at 10 µM (COLO 205): -3.42%; inhibition of growth at 10 µM (SK-OV-3): 5.04%; inhibition of growth at 10 µM (MDA-MB-231): 22.9%
O=C1CC(=O)N(C2=Nc3c(sc4ccc(Cl)cc34)C(c3cccc([N+](=O)[O-])c3)N2)N1 (configuration not stated)	-15.1	-3.57	8.04	10.9	4.39	5.38	5.51	-11.9	2.94	19.4	-4.64	-4.83	20.9	0.3	-4.87	-6.45	-8	-3.4	-3.11	20.8	inhibition of growth at 10 µM (UACC-257): -8.39%; inhibition of growth at 10 µM (M14): -11.3%; inhibition of growth at 10 µM (U-251): -10.9%; inhibition of growth at 10 µM (NCI-H460): 2.81%; inhibition of growth at 10 µM (HCT-116): 0.7%; inhibition of growth at 10 µM (OVCAR-5): -2.6%; inhibition of growth at 10 µM (SK-MEL-28): -19.8%; inhibition of growth at 10 µM (OVCAR-8): -4.71%; inhibition of growth at 10 µM (HOP-92): -17.6%; inhibition of growth at 10 µM (HCC 2998): -8.39%; inhibition of growth at 10 µM (EKVX): 21.9%; inhibition of growth at 10 µM (SNB-75): 8.27%; inhibition of growth at 10 µM (MDA-MB-435): -10.2%; inhibition of growth at 10 µM (CAKI-1): 10.9%; inhibition of growth at 10 µM (HOP-62): 9.64%; inhibition of growth at 10 µM (COLO 205): -8.39%; inhibition of growth at 10 µM (SK-OV-3): 1.27%; inhibition of growth at 10 µM (MDA-MB-231): 11.8%
